# Values quoted from earlier work in KR20170036668A, “피부 발진의 예방 또는 치료용 약학 조성물” (주식회사 대웅제약, priority 2014, dated 2017).
# Key:
# [1] = test system: 피부 발진; conditions: prophylactic treatment; Jatoi A et al., Cancer 113:847-853
SMILES,Incidence of erlotinib related skin effect (ERSE) (NSCLC and PC clinical trials) [%],Proportion of patients with grade 3-4 ERSE (NSCLC and PC clinical trials) [%],Time to onset of rash after start of treatment (rash above the waist),Improvement of skin rash versus placebo [1] [%]
C#Cc1cccc(Nc2ncnc3cc(OCCOC)c(OCCOC)cc23)c1 [엘로티닙],75,~10,7-10 일,
CN(C)[C@@H]1C(O)=C(C(N)=O)C(=O)[C@@]2(O)C(O)=C3C(=O)c4c(O)cccc4[C@@](C)(O)[C@H]3C[C@@H]12 [테트라사이클린],,,,30
